Here are results for ten compounds from PMC12125420, “Yinling Qushi Granule as a therapeutic agent for metabolic syndrome: pharmacological, molecular targets, and pharmacokinetic insights” (Advanced Biotechnology, 2025).

The nature of the first series: in vivo. Particulars: male, Sprague-Dawley, rat, po, 36.99 g/kg.
Description: (§1) SPF grade Sprague–Dawley rats (n = 6, male, 8–10-week-old, 300 ± 20 g) were obtained from the Guangdong Medical Laboratory Animal Center (Guangzhou, China, Certificate No. SCXK 2022–0002), maintained in environmental conditions with a temperature of 20–25 °C, humidity of 55 ± 15%, and a 12-h light/dark cycle. Animals were acclimated for 7 days prior to drug administration. The experimental procedures and protocols have been approved by the Animal Ethics Committee of the School of Life Sciences, Sun Yat-sen University (Ethics approval No. SYSU-lS-IACUC- 2024–0130, Guangzhou, China), with every effort being made to minimize the suffering of the animals.
(§2) In order to investigate the absorbable components in vivo, Yinling Qushi (YLQS) extract was prepared as follows: 77.76 g of Poria cocos (Schw.) Wolf (Fuling, FL), 29.16 g of Atractylodes macrocephala Koidz. (Baizhu, BZ), 12.96 g of Zingiber officinale Rosc. (Ganjiang, GJ), 19.44 g of Polyporus umbellatus (Pers.) Fries (Zhuling, ZL), 19.44 g of Cinnamomum cassia Presl (Guizhi, GZ), 24.30 g Artemisia capillaris Thunb. (Yinchen, YC), 19.44 g Glehnia littoralis Fr.Schmidt ex Miq. (Beishashen, BSS) and 19.44 g of Glycyrrhiza uralensis Fisch. (Gancao, GC) were weighted. The weighted herbs were mixed thoroughly and extracted with 750 mL boiling water for 1 h, twice. The aqueous extracts were combined, filtered, and concentrated by rotary evaporation to a total volume of 12 mL, with a final extraction yield of 18.5 g crude herbal materials per 1 mL of Yinling Qushi (YLQS) extract.
(§3) SD Rats were fasted for 12 h, followed by orally administrated with Yinling Qushi (YLQS) extract at a dose of 36.99 g/kg (6.7 mL/kg). 200 μL of venous blood was collected at 0 min, 15 min, 30 min, 1 h, 2 h, 4 h, 6 h, 8 h, 10 h, 12 h, and 24 h post-gavage. Serum samples were freshly prepared by centrifugation (3,000 g, 20 min, 4 ℃), supernatant collection and storage at − 80 ℃ till analysis.
(§4) For serum extraction, 90 μL serum of indicated time points were pre-mixed with 10 μL IS working solution (myristic acid-D27, 10 μg/mL in methanol). 1 mL ethyl acetate was added to 100 μL premixed serum, vortexed vigorously for 5 min, and centrifuged (10,000 g, 15 min, 4 ℃) for protein precipitation. 700 μL of supernatant was transferred and evaporated to dryness under nitrogen flow. Prior to assay, samples were re-suspended with 100 μL methanol: distill water solution (4:1, v/v), sonicated and vortex-mixing for dissolve completely, and centrifuged (10,000 g, 20 min, 4 ℃). 10 μL of supernatant was analyzed using a connected system of AQUITY UPLC (Waters Corp., Milford, MA, USA) hybrid ZenoTOF 7600-MS/MS system (AB Sciex, Framingham, MA, USA) with electrospray ionization (ESI) source.
(§5) A reversed-phase Kinetex C18 column (2.1 × 100 mm, 2.6 μm, Phenomenex, CA, USA) was used, with 0.3 mL/min flow rate at 40 ℃. The mobile phase consisted of an aqueous solvent A (0.1% formic acid, v/v) and organic solvent B (acetonitrile with 0.1% formic acid, v/v). The elution gradient was as follows: 5–30% B (0–20 min); 30–95% B (20–27 min), maintained at 95% B (27–32 min); 95–5% B (32–33 min); and 5% B (33–38 min) to equilibrate the system.
(§6) The instrumental parameters of mass spectrometry were as follows: ion source gas 1 and gas 2 were both 55 psi, curtain gas was 35 psi, the CAD gas was 8 psi, and the ion source temperature was 550 °C. The ion spray voltage floating (ISVF) was set to 5500 V for positive mode and − 4500 V for negative mode. The collision energy (CE) and collision energy spread (CES) were set to 35 V and 15 eV, and declustering potential was 80 V. The mass-to-charge ratio (m/z) range was set to 50–1500 Da, with an accumulation time of 0.15 s. Data were collected by SCIEX OS software (version 3.3.0.12027, AB Sciex, Framingham, MA, USA) in information-dependent acquisition (IDA) mode.
The term AUC(0-inf) denotes the area under the concentration-time curve extrapolated to infinity. The low end stands for low exposure, the high end for high exposure. By AUC(0-t) is commonly meant exposure summed from dosing to a finite time, without extrapolation to infinity. A lower AUC(0-t) goes with less exposure. By Cmax is commonly meant the maximum level reached in the sampled fluid or tissue. The Tmax is the time from dosing to the highest level. A word on the half-life: it is how long it takes for the measured level to halve. For the compound `CC(C)=CC1CC(C2CCC3(C)C4=CCC5C(C)(CCC(O)C5(C)C)C4=CCC23C)C(=O)O1` (stereo not drawn) [Porilactone A], the AUC(0-inf) stood at 9200 ± 744 ng·h/mL, the AUC(0-t) worked out at 9460 ± 501 ng·h/mL, the Cmax stood at 846 ± 31.9 ng/mL and the Tmax was 6.5 ± 1.89 h. The same compound showed a half-life of 2.15 ± 0.24 h.

Take `CC(=CCCC(C(=O)O)C1C(O)CC2(C)C3=CCC4C(C)(CCC(O)C4(C)C)C3=CCC12C)CO` (stereo not drawn) [Dihydroxydehydrotrametenoic acid]: the AUC(0-inf) stood at 3270 ± 142 ng·h/mL, the AUC(0-t) came out at 3030 ± 356 ng·h/mL, the highest level (Cmax) was 308 ± 35.6 ng/mL and the Tmax came to 4.4 ± 0.75 h. Further, the half-life is 4.98 ± 1.07 h.

Turning to `CC(C)C(=O)CCC(C(=O)O)C1C(O)CC2(C)C3=C(CCC12C)C1(C)CCC(O)C(C)(C)C1CC3` (stereo not drawn) [Daedaleanic acid B], the AUC(0-inf) amounted to 170 ± 27.6 ng·h/mL, the AUC(0-t) was 129 ± 32.5 ng·h/mL, the Cmax is 20.6 ± 0.8 ng/mL and the Tmax came out at 1.35 ± 0.68 h. The compound further gave a half-life of 3.84 ± 0.75 h.

In the case of `CC(C)=CCCC(C(=O)O)C1C(O)CC2(C)C3=CCC4C(C)(CCC(O)C4(C)C)C3=CCC12C` (stereo not drawn) [16alpha-Hydroxydehydrotrametenolic acid], the AUC(0-inf) was 136000 ng·h/mL, the AUC(0-t) was 136000 ng·h/mL, the concentration peaked (Cmax) at 16800 ng/mL and the Tmax is 4.4 ± 0.75 h. Moreover, the half-life was 1.78 ± 0.09 h.

Test in another series: not given
As to conditions: rat, in vivo.
On to `CC(C)=CC1CC(C2CCC3(C)C4=CCC5C(C)(CCC(O)C5(C)C)C4=CCC23C)C(=O)O1` (stereo not drawn) [Porilactone A], for which the “Absorption pattern of serum concentration-time curve” value is given as “double-peak absorption pattern”.

The next series in a line: Pharmacokinetics of absorbed triterpenoid prototypes in rat serum after oral YLQS extract. Particulars: male, Sprague-Dawley, 36.99 g/kg.
Description: as §1, §2, §3, §4, §5, §6
As for `C=C(C)C1CC=C2C(=CCC3(C)C(C(CCC=C(C)C)C(=O)O)CCC23C)C1(C)CCC(=O)O` (stereo not drawn) [16-Deoxyporicoic acid B], the AUC(0-inf) turned out to be 2540 ± 264 ng·h/mL, the AUC(0-t) came out at 1970 ± 280 ng·h/mL, the highest level (Cmax) was 290 ± 44.5 ng/mL and the Tmax is 5.6 ± 0.75 h. The same compound had a half-life of 4.95 ± 0.81 h.

On to `C=C(C)[C@@H]1CC=C2C(=CC[C@]3(C)[C@@H]([C@@H](CCC(=C)C(C)(C)O)C(=O)O)[C@H](O)C[C@@]23C)[C@@]1(C)CCC(=O)OC` [Poricoic acid DM], for which the AUC(0-inf) turned out to be 105 ± 13.6 ng·h/mL, the AUC(0-t) amounted to 77.1 ± 12.4 ng·h/mL, the maximum concentration (Cmax) was found to be 13.2 ± 2 ng/mL and the Tmax amounted to 4 ± 1.41 h. Moreover, the half-life was 4.61 ± 1.21 h.

For `C=C(C)[C@@H]1CC=C2C(=CC[C@]3(C)[C@@H]([C@@H](CCC=C(C)C)C(=O)O)[C@H](O)C[C@@]23C)[C@@]1(C)CCC(=O)O` [Poricoic acid B], the AUC(0-inf) was determined as 2290 ± 621 ng·h/mL, the AUC(0-t) stood at 2710 ± 417 ng·h/mL, the concentration peaked (Cmax) at 214 ± 53.8 ng/mL and the Tmax is 5.5 ± 0.96 h. Also, the half-life is 4.11 ± 0.82 h.

For `C=C(C)C1CC=C2C(=CCC3(C)C(C(CCC(=C)C(C)(C)O)C(=O)O)C(O)CC23C)C1(C)CCC(=O)O` (stereo not drawn) [Poricoic acid D], the AUC(0-inf) came to 82 ± 5.1 ng·h/mL, the AUC(0-t) amounted to 68 ± 10.1 ng·h/mL, the peak level (Cmax) was 7.5 ± 1.3 ng/mL and the Tmax stood at 6.4 ± 1.72 h. Further, the half-life is 5.51 ± 0.88 h.

In the case of `C=C(C)C1CC=C2C(=CCC3(C)C(C(CCC=C(C)CO)C(=O)O)C(O)CC23C)C1(C)CCC(=O)O` (stereo not drawn) [Poricoic acid E], the AUC(0-inf) came to 223 ± 30.6 ng·h/mL, the AUC(0-t) is 205 ± 25.1 ng·h/mL, the peak level (Cmax) was 16 ± 2.7 ng/mL and the Tmax worked out at 8.5 ± 1.5 h. Moreover, the half-life is 6.64 ± 0.75 h.

For the compound `C=C(C)[C@@H]1CCC2=C(CC[C@]3(C)[C@@H]([C@@H](CCC=C(C)C)C(=O)O)[C@H](O)C[C@@]23C)[C@@]1(C)CCC(=O)O` [Poricoic acid G], the AUC(0-inf) amounted to 4420 ± 367 ng·h/mL, the AUC(0-t) stood at 4090 ± 442 ng·h/mL, the Cmax was 470 ± 89.2 ng/mL and the Tmax stood at 5.5 ± 0.96 h. The same compound showed a half-life of 3.5 ± 1.08 h.
